Source: ChEMBL document CHEMBL4396870, “Pharmacological Chaperones for the Treatment of α-Mannosidosis” (J Med Chem, 2019)
Substitutions are numbered along the chain they refer to.

Columns and labels:
[1] = tested on: T1, Lysosomal alpha-mannosidase (Homo sapiens), O00754 [L565P]; test: Chaperone activity at human Lysosomal alpha-mannosidase L565P mutant transfected in human […] knockout HAP1 cells assessed as enzyme activity enhancement at 2 uM incubated for 96 hrs relative to control
T1 sequence (whole entry): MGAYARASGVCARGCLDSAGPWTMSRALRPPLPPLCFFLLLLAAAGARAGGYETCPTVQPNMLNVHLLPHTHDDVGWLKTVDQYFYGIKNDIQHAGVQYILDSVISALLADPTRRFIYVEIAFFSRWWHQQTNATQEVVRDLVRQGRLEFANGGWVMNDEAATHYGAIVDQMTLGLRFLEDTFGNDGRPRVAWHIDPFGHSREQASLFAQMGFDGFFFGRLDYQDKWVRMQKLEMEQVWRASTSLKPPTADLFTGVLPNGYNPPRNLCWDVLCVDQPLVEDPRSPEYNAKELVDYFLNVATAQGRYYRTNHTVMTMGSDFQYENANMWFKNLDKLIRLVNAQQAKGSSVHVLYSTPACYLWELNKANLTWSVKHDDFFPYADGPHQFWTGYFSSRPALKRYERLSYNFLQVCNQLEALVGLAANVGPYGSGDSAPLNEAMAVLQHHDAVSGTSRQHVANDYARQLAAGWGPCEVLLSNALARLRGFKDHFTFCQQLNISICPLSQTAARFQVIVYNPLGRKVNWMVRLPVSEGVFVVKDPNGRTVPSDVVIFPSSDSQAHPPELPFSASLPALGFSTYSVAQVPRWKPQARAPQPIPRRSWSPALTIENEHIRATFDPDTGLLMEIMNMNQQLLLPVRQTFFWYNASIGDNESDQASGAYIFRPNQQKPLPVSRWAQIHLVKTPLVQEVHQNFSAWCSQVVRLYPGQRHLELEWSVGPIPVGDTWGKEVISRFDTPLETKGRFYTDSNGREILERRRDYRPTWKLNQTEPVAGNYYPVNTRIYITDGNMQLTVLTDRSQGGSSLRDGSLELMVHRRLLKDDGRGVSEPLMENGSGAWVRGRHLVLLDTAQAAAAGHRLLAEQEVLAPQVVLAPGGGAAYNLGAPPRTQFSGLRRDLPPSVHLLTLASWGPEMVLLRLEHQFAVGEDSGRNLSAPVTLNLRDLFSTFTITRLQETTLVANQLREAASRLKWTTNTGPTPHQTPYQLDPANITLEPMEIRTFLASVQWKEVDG

[2] = tested on: T2, Lysosomal alpha-mannosidase (Homo sapiens), O00754 [R916C]; test: Chaperone activity at human Lysosomal alpha-mannosidase R916C mutant transfected in human […] knockout HAP1 cells assessed as enzyme activity enhancement at 2 uM incubated for 96 hrs relative to control
T2 sequence (whole entry): T1 sequence (whole entry) with P565L, R916C

Structure (SMILES) | Activity [1] [%] | Activity [2] [%]
COC[C@H]1O[C@@H]2O[C@H]3[C@H](OC)[C@@H](OC)[C@@H](O[C@H]4[C@H](OC)[C@@H](OC)[C@@H](O[C@H]5[C@H](OC)[C@@H](OC)[C@@H](O[C@H]6[C@H](OC)[C@@H](OC)[C@@H](O[C@H]7[C@H](OC)[C@@H](OC)[C@@H](O[C@H]8[C@H](OC)[C@@H](OC)[C@@H](O[C@H]1[C@H](OC)[C@H]2OC)O[C@@H]8COC)O[C@@H]7COC)O[C@@H]6COC)O[C@@H]5COCc1cn(CCCCCCN[C@@H]2[C@@H](O)[C@@H](O)[C@H](O)[C@H]5COC(=O)N52)nn1)O[C@@H]4COC)O[C@@H]3COC | 8 | 33
CC(C)(C)OC(=O)NCCCCCCCCCN[C@@H]1[C@@H](O)[C@@H](O)[C@H](O)[C@H]2COC(=O)N21 | 14 | 26
